Measurements as given in the supplement of paper PMC10307832.

Tests used:
Assay in all cases: relative viability (nuclei count vs DMSO), 5 days (fraction); higher = more cells survive
[1] = compound: CC1=C(C=C(C=C1)NC(=O)C2=CC(=CC=C2)C(C)(C)C#N)NC3=CC4=C(C=C3)N=CN(C4=O)C [AZ628] + CC1(C)CCC(c2ccc(Cl)cc2)=C(CN2CCN(c3ccc(C(=O)NS(=O)(=O)c4ccc(N[C@H](CCN5CCOCC5)CSc5ccccc5)c(S(=O)(=O)C(F)(F)F)c4)cc3)CC2)C1 [Navitoclax] (partner 0.5 µM)
Method in brief: (§1)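 A single step with final 0.05% Triton X-100, 1% formaldehyde and 1 ug/ml Hoechst fixed the cells and stained nuclei 5 days after treatment. Lung cancer cell lines in 1536-well plates had been treated by pin tool the day after seeding with one drug alone or a fixed anchor-drug dose plus five library-drug doses (not always all listed) in √10 steps, and nuclei were counted on 4× images. Relative viability is the ratio of nuclei in treated wells to nuclei in vehicle wells, taken as the median of duplicate plates.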

[2] = compound: CC1=C(C=C(C=C1)NC(=O)C2=CC(=CC=C2)C(C)(C)C#N)NC3=CC4=C(C=C3)N=CN(C4=O)C [AZ628] + COc1cc2c(Oc3ccc(NC(=O)C4(C(=O)Nc5ccc(F)cc5)CC4)cc3F)ccnc2cc1OCCCN1CCOCC1 [Foretinib] (partner 0.25 µM)
Method in brief: as §1

[3] = compound: C[As](C)SC[C@H](NC(=O)CC[C@H](N)C(=O)O)C(=O)NCC(=O)O [Darinaparsin] + CC(=O)Nc1cccc(-n2c(=O)n(C3CC3)c(=O)c3c(Nc4ccc(I)cc4F)n(C)c(=O)c(C)c32)c1 [Trametinib] (partner 0.02 µM)
Method in brief: as §1

[4] = compound: CC1=C(C=C(C=C1)NC(=O)C2=CC(=CC=C2)C(C)(C)C#N)NC3=CC4=C(C=C3)N=CN(C4=O)C [AZ628] + Cc1nc(NC(=O)N2CCC[C@H]2C(N)=O)sc1-c1ccnc(C(C)(C)C(F)(F)F)c1 [Alpelisib] (partner 2 µM)
Method in brief: as §1

Cell Line	relative viability ([1]; first compound 0.08 µM)	relative viability ([1]; first compound 0.253 µM)	relative viability ([1]; first compound 0.8 µM)	relative viability ([1]; first compound 2.53 µM)	relative viability ([1]; first compound 8 µM)	relative viability ([2]; first compound 0.08 µM)	relative viability ([2]; first compound 0.253 µM)	relative viability ([2]; first compound 0.8 µM)	relative viability ([2]; first compound 2.53 µM)	relative viability ([2]; first compound 8 µM)	relative viability ([3]; first compound 0.08 µM)	relative viability ([3]; first compound 0.8 µM)	relative viability ([3]; first compound 2.53 µM)	relative viability ([3]; first compound 8 µM)	relative viability ([4]; first compound 0.08 µM)	relative viability ([4]; first compound 0.253 µM)	relative viability ([4]; first compound 0.8 µM)	relative viability ([4]; first compound 2.53 µM)	relative viability ([4]; first compound 8 µM)
H3255	0.496	0.503	0.558	0.489	0.227	0.958	0.899	0.78	0.96	0.661	0.595	0.812	0.574	0.62	0.724	0.653	0.75	0.747	0.496
HCC-827	0.986	1	0.954	1.02	0.811	0.982	0.933	0.967	1.02	0.715	0.578	0.502	0.566	0.508	0.903	0.9	0.889	0.984	0.555
LXF-289	0.941	0.875	0.87	0.942	0.568	1	0.942	0.879	0.961	0.641	0.768	0.667	0.677	0.697	1.01	1.01	0.963	0.961	0.626
NCI-H727	0.339	0.276	0.163	0.154	0.165	0.628	0.455	0.383	0.319	0.322	0.372	0.397	0.381	0.383	0.499	0.308	0.301	0.318	0.23
